# In ChEMBL document CHEMBL3507680, “University of Dundee, Gates Library screen for HepG2 cell viability”:
# Assay: Human HepG2 cell viability assay in 384 well format
# Format: toxicity, cell-based
# Design: dose 125 nL, time 70.5 hour; concentration not given beside the values
# Conditions: HepG2 cells, read-out: Inhibition
row,Structure (SMILES),cytotoxicity at 70.5 h
1,CCn1cnnc1C1CCN(C(=O)c2cnc(C3CC3)s2)CC1,-10.2%
2,CCSc1ncc(Cl)c(C(=O)NC(CCSC)C(=O)O)n1 (stereo unspecified),-7.9%
3,CNCc1cc(F)ccc1Oc1ccc(F)cc1,2.53%
4,CCN(CC)C(=O)NCCc1ccn(-c2ccccc2)n1,11%
5,O=C(N[C@H]1CN(c2ccncc2)C[C@@H]1C1CC1)C1CCOCC1,-3.12%
6,COc1ncccc1CNC(=O)N1CCC(CNC(C)=O)CC1,-8.01%
7,COc1cccc([C@H]2CN(C(=O)c3noc4c3CCCC4)C[C@@H]2N)c1,-3.29%
8,CC(C)c1ccc(NC(=O)c2ncc(C(N)=O)cc2Cl)cc1,-86.1%
9,O=C(O)c1cc2c(c(S(=O)(=O)N(CCCO)c3ccccc3)c1)CCC2,-10.1%
10,COc1ccc(CC(=O)N2CCCCC2Cn2cccn2)cc1 (stereo unspecified),-3.73%
11,CCOC(=O)N1CC(=O)N(Cc2ccc(OC)cc2)CC(O)C1 (stereo unspecified),0.836%
12,CCNC(=O)[C@@H]1C[C@H](N)CN1C(=O)c1cccc(CCC(C)(C)O)c1,-5.42%
13,CC(C)S(=O)(=O)N1CCOC(CCc2ccccc2)C1 (stereo unspecified),-8.39%
14,CCc1ncc2c(n1)CN(c1nnc(C)c(C)c1C#N)CC2,5.31%
15,CC(C)OC(=O)NCc1ccc(NCc2cnn(C(C)(C)C)c2)cc1,-13.1%
16,O=C1OCCN1CC(=O)N1C[C@H]2CC[C@@H]1CN(C(=O)c1ccccn1)C2,-7.06%
17,Cc1cccc(CN2C[C@@H]3CN(C(=O)NC(C)C)C[C@@H]3C2=O)n1,-12%
18,COCC(=O)N1CC[C@H]2N(C)CC[C@@]2(C(=O)Nc2ccccc2)CC1,-20%
19,CCCN1CCN(C(=O)Cc2nc(-c3ccco3)oc2C)CC1,-7.9%
20,Cc1oc(C)c(C(=O)NCc2ccccc2CN(C)C)c1C,16.8%
21,Cc1nc(CN(CCS(C)(=O)=O)C(C)C)no1,-5.83%
22,CN(Cc1nnc(C2CC2)o1)C1CCN(CCc2cccs2)C1 (stereo unspecified),30.4%
23,CC(=O)N1CCN(C(=O)CCNc2snc(Cl)c2C#N)CC1,-10.6%

row,Structure (SMILES),cytotoxicity at 70.5 h
1,CC(=O)c1ccc(C(=O)NCCCOC(C)c2ccccc2)s1 (stereo unspecified),1.1%
2,Cn1c(C(F)(F)F)nn(CCNC(=O)NCc2ccccc2)c1=O,16.5%
3,CS(=O)(=O)N[C@@H]1CN(Cc2ccco2)C[C@@H]2CCCO[C@@H]21,-6.79%
4,CCc1ncc(C(=O)NCCn2c(C)cc(C)nc2=O)cn1,-1.56%
5,CN(C)c1nccc(C2CCCN2S(=O)(=O)c2cn(C)cn2)n1 (stereo unspecified),-15.2%
6,O=C1CC2(CCN(Cc3ccncc3)C2)CN1c1ccc2c(c1)OCO2 (stereo unspecified),30%
7,CC(NCc1ccncc1)c1ccc(N2CCN(C)CC2)c(F)c1 (stereo unspecified),4.11%
8,CCC(=O)Nc1nnc(CCOc2ccccc2OC)s1,-11.7%
9,Cc1ncnc2c1CCN(C(=O)N(C)C)CC2,-0.115%
10,Cc1cc(F)ccc1N1CCCC(NS(=O)(=O)CCCF)C1=O (stereo unspecified),-6.3%
11,CC[C@@H]1N(Cc2ccc(C)o2)CCC[C@]12CCC(=O)N2CCOC,16.8%
12,CCc1nc(C2CCCN2C(=O)CCCn2cncn2)no1 (stereo unspecified),-8.49%
13,O=c1[nH]c(CN2CCN(CC(F)(F)F)CC2)nc2ccccc12,-13.3%
14,CNS(=O)(=O)c1cccc(C(C)NCc2ccccc2OC)c1 (stereo unspecified),-4.76%
15,CCN1CCN(C(=O)c2cc(NC(=O)c3ccccc3)n(C)n2)CC1,-3.8%
16,CC(C)CNC(=O)c1ccc(NC(=O)NC(C)C)cc1Cl,-11.5%
17,CN(CC(=O)N1CC(Oc2ccccc2Cl)C1)Cc1ccncc1,12.8%
18,Cc1cc(C)c(CNCC(O)c2ccc(F)c(F)c2)c(C)c1 (stereo unspecified),-11.4%
19,Cc1noc(C)c1CN(C)Cc1csc(-c2ccccc2F)n1,-3.72%
20,CCN1C[C@@H]2CN(C(=O)NCc3ccccc3)CCC[C@]2(C(=O)O)C1,-15.2%
21,Cc1nc(C2CCCN2Cc2cc(Cl)c3c(c2)OCO3)no1 (stereo unspecified),-4.26%
22,CC[C@@H](C)[C@@H](N)C(=O)Nc1cccc(-c2cnc(N(C)CCO)nc2)c1,-6.3%
23,COc1ccc2c(OCC(=O)NC(C)(C)C)ccnc2c1,-18.7%

row,Structure (SMILES),cytotoxicity at 70.5 h
1,O=C(c1cscn1)N1CCc2ncnc(-c3ccncc3)c2CC1,-2.35%
2,COC(=O)c1cccn1C1CCN(C(=O)c2c(C)noc2C)CC1,3.97%
3,CCS(=O)(=O)N1CCCC(c2ccnc(N(C)C)c2)C1 (stereo unspecified),-6.79%
4,CSCc1cccc(S(=O)(=O)NCCCO)c1,-6.9%
5,O=C(NCCOCC1CC1)Nc1ccc(F)cc1,-9.49%
6,CCS(=O)(=O)N(C)c1ccc(C(=O)N2CCCC(C)C2)cc1 (stereo unspecified),-7.21%
7,CC(=O)N1CCCC1c1nc(N(C)C)ncc1-c1ccccc1 (stereo unspecified),23.2%
8,COc1cc(C(=O)NS(=O)(=O)c2ccc(C#N)cc2)ccc1C,-5.03%
9,Cc1nn(C)c(C)c1C1CCCN1Cc1nc2ccccc2c(=O)[nH]1 (stereo unspecified),-0.414%
10,CS(=O)(=O)Nc1nn(Cc2ccc(F)cc2)cc1Br,-3.65%
11,O=C(NCCc1ccsc1)Nc1cccnc1N1CCCC1,3.02%
12,CC(C)=CCC/C(C)=C/CC(C)(C)CNCc1ccco1,-1%
13,CCn1ncc(CN(C)C(=O)c2cc(C(F)(F)F)n(C)n2)c1C,-17.2%
14,Cc1ccc(N2CCOC(C)(C(=O)N(C)C)C2)nn1 (stereo unspecified),-6.16%
15,Cc1cc(C(=O)N2CCCCC2c2nc(C)cs2)[nH]n1 (stereo unspecified),-7.87%
16,COc1cc(C)c(C(C)NC(=O)c2cccnc2N(C)C)cc1OC (stereo unspecified),-6.36%
17,Cn1ncc2c(NCCC34CCCN3CCC4)nc(C3CCCC3)nc21,5.19%
18,Cc1cccnc1[C@]1(O)CC[C@H]2CN(Cc3cccc(Cl)c3Cl)C[C@H]21,-3.29%
19,CC(C)OCCCNC(=O)CC1(Cn2cnnn2)CCCCC1,-8.88%
20,CCOC(=O)[C@]12CCCN(Cc3nccs3)C[C@H]1CN(S(C)(=O)=O)C2,-6.29%
21,Cn1ccc2c(C(=O)N3CC[C@@]4(O)CCCC[C@H]4C3)cccc21,0.292%
22,Cc1nnc([C@@]23CCO[C@@H]2CCN(Cc2cccc4ccccc24)C3)o1,-6.43%
23,O=C(N[C@H]1COC[C@@H]1N1CCCC1)c1csc(Cc2ccccc2)n1,-14.1%

row,Structure (SMILES),cytotoxicity at 70.5 h
1,CN(Cc1cccc(F)c1)C(=O)CN1CCCCC1Cn1cncn1 (stereo unspecified),-9.08%
2,OCCC1CN(c2ncnc3[nH]cnc23)CCN1Cc1ccccc1F (stereo unspecified),5.32%
3,COc1cccc(C(=O)N2CCN(C(=O)CCCc3cn[nH]c3)CC2)c1,-2.77%
4,CCc1cc(CN(C)Cc2nc(-c3ccc(OC)cc3F)oc2C)on1,-5.4%
5,Cc1ccc(N2CC(c3nccc(C)n3)C2)nn1,9.5%
6,COc1ccc(NC(=O)c2cccc(CN3CCCC3C)c2)cc1OC (stereo unspecified),-2.34%
7,CC(C)(C)CCN1CCCC(Cn2cc(CCO)nn2)C1 (stereo unspecified),-9.34%
8,c1cnc(NCc2ncn3c2CN(Cc2cccnc2)CCC3)nc1,-2.74%
9,COCc1cccc(CNC(=O)CNc2ccccc2C(C)=O)c1,1.21%
10,CN1CC2(CCN(C(=O)c3coc4c3C(=O)CCC4)C2)OC1=O (stereo unspecified),-6.28%
11,O=C(O)c1cccc(CC2CCN(c3ncccn3)CC2)c1,3.25%
12,Cc1cc(CN2C[C@@H]3COC[C@]3(c3nnc(C)o3)C2)no1,16.2%
13,Clc1cccnc1OC1CCNCC1,22.1%
14,O=C(c1ccc(-c2cc[nH]n2)cc1)N1CC[C@H](CO)[C@H](O)C1,0.543%
15,COc1cc(C2CC(=O)Nc3c2nc2n3CCCC2)cc(OC)c1O (stereo unspecified),-5.3%
16,Cc1cnc(N2CCC[C@@H]3CN(CC(=O)N(C)C)C[C@@H]32)nc1,-6.11%
17,CCOc1cc(C(=O)NS(C)(=O)=O)cc(-c2ccccc2)c1OC,0.968%
18,O=C(NC1CC(=O)N(C2CC2)C1)c1ccc(Cl)s1 (stereo unspecified),-8.35%
19,O=C(c1ccc2[nH]ccc2c1)N1CC[C@@H]2CN(CC3CC3)CCO[C@@H]2C1,-7.61%
20,CC(C)(C)C(=O)NCCC(=O)NC(C)(C)c1ccc2c(c1)OCCO2,1.98%
21,NCc1cnn(-c2ccccc2C(=O)NCc2ccccn2)c1,-5.83%
22,N#CCCN(CC1CCOC1)S(=O)(=O)c1cccc(Cl)c1 (stereo unspecified),-5.98%
23,CC(CN1CCOCC1)NC(=O)c1cccc2cn[nH]c12 (stereo unspecified),-3.84%

row,Structure (SMILES),cytotoxicity at 70.5 h
1,O=c1c2ccccc2nc2n1C(CSc1ccc(Cl)cc1)CN2 (stereo unspecified),2.49%
2,CC(=O)N1CCSCC1c1ccc(C)o1 (stereo unspecified),-8.59%
3,Cc1nc(-c2ccco2)ccc1C(=O)N1CCc2nnc(N)cc2C1,-1.99%
4,CCC(NC(=O)NCc1nncn1CC)c1ccc(OC)cc1 (stereo unspecified),-9.27%
5,Cc1ccc(N2CC[C@H]3O[C@H](C(=O)NCc4ccco4)CC[C@H]32)nn1,-18.3%
6,Cc1ccc(C(CNC(=O)NCc2cc[nH]n2)N2CCOCC2)o1 (stereo unspecified),-14.3%
7,CCn1nc(C(=O)N2CCCC2c2noc(C3CC3)n2)ccc1=O (stereo unspecified),12.1%
8,O=C(N1CCOCC1)N1CCCC1c1nc(-c2ccccn2)no1 (stereo unspecified),-8.93%
9,CNC(=O)c1nc(CC(=O)Nc2cccc(C(F)(F)F)c2)no1,22.3%
10,CN(Cc1cnccn1)C(=O)c1ccc(CSc2nnc[nH]2)o1,-20.7%
11,CSc1ccc(C(=O)C2CCCN(C(=O)CCCn3cncn3)C2)cc1 (stereo unspecified),-6.96%
12,CN(C)C(=O)COC[C@H]1CC[C@@H]2[C@@H](CCN2Cc2ccccn2)O1,-7.44%
13,COc1ccc(C2CC(=O)Oc3cc(C)[nH]c(=O)c32)cc1O (stereo unspecified),-19.6%
14,Cn1ccnc1CN1C[C@@H](F)[C@@H](OCc2nc3cnccc3[nH]2)C1,13.1%
15,O=C(c1cnc(C2CC2)s1)N1CCCC1Cn1cccn1 (stereo unspecified),-4.89%
16,Cc1cc(C)n(CC2CN(CC(=O)NCc3ccccn3)CCO2)n1 (stereo unspecified),-2.74%
17,COc1ccc(C(C)NC(=O)Cn2ccc(=O)n(C)c2=O)cc1F (stereo unspecified),-2.29%
18,O=C(c1cnc(NCC2CCCO2)c(Cl)c1)N1CCOCC1 (stereo unspecified),-9.69%
19,Cc1cccc(CSc2ncc(Cl)c(C(=O)O)n2)c1,-11%
